Key:
NIH3T3 = experiment: Inhibitory activity tested in NIH 3T3 cells; format: functional, cell-based; conditions: Mus musculus
[1] = Inhibitory activity against TGF-beta dependent luciferase production in mink lung cells p3TP Lux; format: functional, cell-based
[2] = molecular target: Mitogen-activated protein kinase 14 (Homo sapiens, UniProt Q16539); experiment: Inhibitory activity against Mitogen-activated protein kinase p38
Sequence of Mitogen-activated protein kinase 14 (Q16539 whole entry): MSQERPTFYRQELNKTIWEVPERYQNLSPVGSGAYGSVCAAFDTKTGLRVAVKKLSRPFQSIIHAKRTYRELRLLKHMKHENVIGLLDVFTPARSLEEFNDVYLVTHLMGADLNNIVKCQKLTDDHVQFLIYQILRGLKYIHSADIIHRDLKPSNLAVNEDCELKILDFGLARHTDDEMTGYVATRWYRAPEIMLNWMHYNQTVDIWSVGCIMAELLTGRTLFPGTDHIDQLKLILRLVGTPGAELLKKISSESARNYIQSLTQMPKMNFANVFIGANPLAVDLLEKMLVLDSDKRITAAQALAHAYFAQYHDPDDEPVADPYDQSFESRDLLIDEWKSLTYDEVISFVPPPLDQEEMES

| Structure (SMILES) | IC50 [1] | IC50 [2] | IC50 (NIH3T3) |
| --- | --- | --- | --- |
| Cc1ccc(-c2c(-c3cccc(C)n3)nn3c2CCC3)cc1 | > 20000 nM |  | > 20000 nM |
| Cc1cccc(-c2n[nH]cc2-c2ccc(O)cc2)n1 |  | 31000 nM |  |
| COc1ccc(-c2c(-c3cccc(C)n3)nn3c2CCC3)cc1 | 304 nM | 4600 nM | 397 nM |
| Cc1cccc(-c2nn3c(c2-c2ccc(F)c(F)c2)CCC3)n1 | 1510 nM |  | 1040 nM |
| COc1ccc(-c2c(-c3ccccn3)nn3c2CCC3)cc1 | 6830 nM |  | 4710 nM |
| Cc1cccc(-c2nn3c(c2-c2ccc(F)cc2)CCC3)n1 | 96 nM | > 20000 nM | 339 nM |
| OCc1cccc(-c2nn3c(c2-c2ccc(F)cc2)CCC3)n1 | 11800 nM |  | 5620 nM |
| Cc1cccc(-c2nn3c(c2-c2ccc(S(C)(=O)=O)cc2)CCC3)n1 | > 20000 nM |  | > 20000 nM |
| Cc1cccc(-c2nn3c(c2-c2ccc(O)cc2)CCC3)n1 | 22 nM | 4300 nM | 105 nM |
| Fc1ccc(-c2c(-c3cccc(C(F)(F)F)n3)nn3c2CCC3)cc1 | 2550 nM |  | 1200 nM |

Further lines, with some results ahead:

| IC50 [1] | IC50 [2] | Structure (SMILES) | IC50 (NIH3T3) |
| --- | --- | --- | --- |
| 285 nM | 1600 nM | CCSc1ccc2c(-c3c(-c4ccccn4)nn4c3CCC4)ccnc2c1 | 326 nM |
| 94 nM | 680 nM | Cc1cccc(-c2nn3c(c2-c2ccnc4ccccc24)CCC3)n1 | 280 nM |
| 2000 nM | 15000 nM | CC(C)c1cccc(-c2nn3c(c2-c2ccnc4ccccc24)CCC3)n1 | 2000 nM |
| 86 nM | 59 nM | CCOc1ccc2c(-c3c(-c4cccc(C)n4)nn4c3CCC4)ccnc2c1 | 152 nM |
| 3860 nM | > 20000 nM | Fc1ccc(-c2c(-c3ccccn3)nn3c2CCC3)cc1 | 3330 nM |
| 196 nM | 1800 nM | Clc1ccc2c(-c3c(-c4ccccn4)nn4c3CCC4)ccnc2c1 | 282 nM |
| 345 nM | 7900 nM | c1ccc(-c2nn3c(c2-c2ccnc4ccccc24)CCC3)nc1 | 51000 nM |
| 143 nM | 620 nM | CCc1cccc(-c2nn3c(c2-c2ccnc4ccccc24)CCC3)n1 | 500 nM |
| 475 nM | 11000 nM | Fc1ccc(-c2nn3c(c2-c2ccnc4ccccc24)CCC3)nc1 | 664 nM |
| > 20000 nM | 9800 nM | CCS(=O)(=O)c1ccc2c(-c3c(-c4ccccn4)nn4c3CCC4)ccnc2c1 |  |
| 93 nM | 440 nM | Cc1cccc(-c2nn3c(c2-c2ccnc4cc(Cl)ccc24)CCC3)n1 | 727 nM |
